ChEMBL document CHEMBL4371060, “Identification of fluorinated (R)-(-)-aporphine derivatives as potent and selective ligands at serotonin 5-HT2C receptor” (Bioorg Med Chem Lett, 2019)

Tests used:
[1] = molecular target: Serotonin 2 receptors; 5-HT2a & 5-HT2c (Homo sapiens) (UniProt P28223+P28335); experiment: Selectivity ratio of Ki for displacement of [3H]ketanserin from 5HT2A receptor (unknown origin) expressed in HEK293T cell membranes to Ki for displacement of [3H]mesulergine from 5HT2C receptor (unknown origin) expressed in HEK293T cell membranes
[2] = molecular target: 5-hydroxytryptamine receptor 2A (Homo sapiens, UniProt P28223); experiment: Displacement of [3H]ketanserin from 5HT2A receptor (unknown origin) expressed in HEK293T cell membranes
[3] = molecular target: T1, 5-hydroxytryptamine receptor 2C (Homo sapiens, UniProt P28335); experiment: Displacement of [3H]mesulergine from 5HT2C receptor (unknown origin) expressed in HEK293T cell membranes
T1 sequence (P28335 whole entry): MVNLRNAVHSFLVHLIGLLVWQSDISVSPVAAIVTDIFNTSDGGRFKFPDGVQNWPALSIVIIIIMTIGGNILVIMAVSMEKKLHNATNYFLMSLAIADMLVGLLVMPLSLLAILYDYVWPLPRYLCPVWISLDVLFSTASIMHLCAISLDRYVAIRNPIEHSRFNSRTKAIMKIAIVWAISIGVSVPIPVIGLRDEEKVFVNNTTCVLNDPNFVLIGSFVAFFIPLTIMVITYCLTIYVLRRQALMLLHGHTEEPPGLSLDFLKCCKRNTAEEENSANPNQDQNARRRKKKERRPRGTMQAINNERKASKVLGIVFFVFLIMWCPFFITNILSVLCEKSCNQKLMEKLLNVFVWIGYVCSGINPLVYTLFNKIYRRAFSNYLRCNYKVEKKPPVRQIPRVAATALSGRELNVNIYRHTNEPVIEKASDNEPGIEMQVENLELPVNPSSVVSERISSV

[4] = molecular target: 5-hydroxytryptamine receptor 2B (Homo sapiens, UniProt P41595); experiment: Displacement of [3H]LSD from 5HT2B receptor (unknown origin) expressed in HEK293 cell membranes
[5] = species on record: Homo sapiens; experiment: Selectivity ratio of Ki for displacement of [3H]LSD from 5HT2B receptor (unknown origin) expressed in HEK293 cell membranes to Ki for displacement of [3H]mesulergine from 5HT2C receptor (unknown origin) expressed in HEK293T cell membranes
[6] = Selectivity ratio of Ki for displacement of [3H]DOI from recombinant human 5HT2B receptor expressed in HEK293T cell membranes to Ki for displacement of [3H]DOI from recombinant human 5HT2C receptor expressed in HEK293T cell membranes

Sequence of 5-hydroxytryptamine receptor 2B (P41595 whole entry): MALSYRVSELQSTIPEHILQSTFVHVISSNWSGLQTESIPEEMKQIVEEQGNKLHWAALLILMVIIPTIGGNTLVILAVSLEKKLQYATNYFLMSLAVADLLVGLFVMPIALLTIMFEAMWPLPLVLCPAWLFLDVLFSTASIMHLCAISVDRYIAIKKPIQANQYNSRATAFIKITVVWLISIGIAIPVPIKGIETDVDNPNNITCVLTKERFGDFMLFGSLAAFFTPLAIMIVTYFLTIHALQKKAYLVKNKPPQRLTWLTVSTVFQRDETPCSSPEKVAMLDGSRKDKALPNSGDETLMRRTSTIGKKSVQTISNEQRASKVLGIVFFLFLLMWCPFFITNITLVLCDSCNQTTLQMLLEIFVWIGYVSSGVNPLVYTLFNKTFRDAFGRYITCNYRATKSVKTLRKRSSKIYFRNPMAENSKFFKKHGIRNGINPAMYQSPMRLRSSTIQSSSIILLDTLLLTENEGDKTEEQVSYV
Sequence of 5-hydroxytryptamine receptor 2A (P28223 whole entry): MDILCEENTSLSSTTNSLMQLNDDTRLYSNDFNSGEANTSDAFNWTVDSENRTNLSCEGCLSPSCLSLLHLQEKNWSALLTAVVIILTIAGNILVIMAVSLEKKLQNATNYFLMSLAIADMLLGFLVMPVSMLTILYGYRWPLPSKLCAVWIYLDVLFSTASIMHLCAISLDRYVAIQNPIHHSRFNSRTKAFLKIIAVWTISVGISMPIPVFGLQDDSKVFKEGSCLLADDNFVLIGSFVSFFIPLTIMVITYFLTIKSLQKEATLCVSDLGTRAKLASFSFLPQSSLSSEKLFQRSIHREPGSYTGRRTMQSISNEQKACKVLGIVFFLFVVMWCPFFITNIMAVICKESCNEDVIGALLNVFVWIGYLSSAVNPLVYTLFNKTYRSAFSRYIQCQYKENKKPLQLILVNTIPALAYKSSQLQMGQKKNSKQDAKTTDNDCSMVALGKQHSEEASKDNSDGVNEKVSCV
Sequence of Serotonin 2 receptors; 5-HT2a & 5-HT2c (Homo sapiens) (P28223 whole entry, looked up, one chain of several): as the sequence (P28223 whole entry) above

Compound | Ratio Ki [1] | Ki [2] [nM] | Ki [3] [nM] | Ki [4] [nM] | Ratio Ki [5] | Ki [6] [nM]
COc1cc2c3c(c1)-c1c(cccc1OC(=O)c1ccc(F)cc1)C[C@H]3N(C)CC2 | 14 | 450 | 32 | 102 | 3.2 | 
CCCN1CCc2cc(OC)cc3c2[C@H]1Cc1cccc(OCc2ccc(F)cc2)c1-3 |  | > 10000 | > 10000 | > 10000 |  | 
CCCN1CCc2cc(OC)cc3c2[C@H]1Cc1cccc(OCCF)c1-3 |  | > 10000 | > 10000 | 3040 |  | 
COc1cc2c3c(c1)-c1c(cccc1OCCCF)C[C@H]3N(C)CC2 | 1.3 | 434 | 338 | 422 | 1.2 | 
C[C@H]1CNCCc2ccc(Cl)cc21 [LORCASERIN] |  |  |  |  |  | 12
CCCN1CCc2cc(OC)cc3c2[C@H]1Cc1cccc(OC(=O)c2ccc(F)cc2)c1-3 | 17 | 414 | 24 | 106 | 4.4 | 
CCCN1CCc2cc(OC)cc3c2[C@H]1Cc1cccc(OCCCF)c1-3 |  | > 10000 | > 10000 | > 10000 |  | 
COc1cc2c3c(c1)-c1c(cccc1OCCF)C[C@H]3N(C)CC2 | 3.3 | 1140 | 343 | 552 | 1.6 | 
COc1cc2c3c(c1)-c1c(cccc1OCc1ccc(F)cc1)C[C@H]3N(C)CC2 |  | 2310 | > 10000 | 2680 |  | 
